According to patent publication US12138250B2, “Formulations of 6-(2-hydroxy-2-methylpropoxy)-4-(6-(6-((6-methoxypyridin-3-yl)methyl)-3,6-diazabicyclo[3.1.1]heptan-3-yl)pyridin-3-yl)pyrazolo[1,5-a]pyridine-3-carbonitrile” (Loxo Oncology, Inc., priority 2017, dated 2024):
Read-outs that look alike come from different tables or passages of the source.

Tests used:
[1] = Gravimetric Vapor Sorption (GVS); assay type: physicochemical
Method: Approximately 10-20 mg of sample was placed into a mesh vapor sorption balance pan and loaded into an IGASorp Moisture Sorption Analyzer balance by Hiden Analytical. The sample was subjected to a ramping profile from 40-90% RH at 10% increments, maintaining the sample at each step until a stable weight had been achieved (98% step completion). After completion of the sorption cycle, the sample was dried using the same procedure to 0% RH, and finally taken back to the starting point of 40% RH. The weight change during the sorption/desorption cycles were plotted, allowing for the hygroscopic nature of the sample to be determined.

[2] = salt screen, succinic acid
[3] = Dynamic Vapor Sorption (DVS); assay type: physicochemical
Method: Approximately 10 mg of sample was placed into a mesh vapor sorption balance pan and loaded into a DVS-1 dynamic vapor sorption balance by Surface Measurement Systems. The sample was subjected to a ramping profile from 40-90% relative humidity (RH) at 10% increments, maintaining the sample at each step until a stable weight had been achieved (99.5% step completion). After completion of the sorption cycle, the sample was dried using the same procedure to 0% RH and then a second sorption cycle back to 40% RH. The weight change during the sorption/desorption cycles were plotted, allowing for the hygroscopic nature of the sample to be determined. XRPD analysis was then carried out on any solid retained.

[4] = Solvent solubility screen in 32 solvent systems; assay type: physicochemical; conditions: for solubility: 40 °C, thermodynamic from solid, read-out: Approximate solubility
Method: A solvent solubility screen was conducted in 32 solvent systems as follows. […] Between each addition, the mixture was checked for dissolution. If no dissolution was apparent, the mixture was heated to around 40° C. and checked again. This procedure was continued until dissolution was observed or until 100 volumes of solvent had been added. Undissolved material from the solubility screen was isolated and analyzed by XRPD.

[5] = Overnight storage at 40° C. and 75% RH with XRPD reanalysis (salt screen, temperature cycling polymorph screen); assay type: physicochemical; conditions: for Post-temperature cycling (XRPD form): analyzed wet; for Post-stability tests (XRPD form): stored at 40° C. and 75% RH overnight
Method: Each mixture was filtered and isolated solids were analyzed (wet) by XRPD to determine crystallinity and form. Samples in which solid was not observed were stored uncapped to allow solvent evaporation. […] The samples were then reanalyzed by XRPD to determine any changes in form or crystallinity. The observations and results, including the different diffractogram patterns observed during the screen, are shown in Tables 8-32, below, and FIGS. 6A-6B through 29A-29B. After temperature cycling, each mixture was filtered and isolated solids were analyzed (wet) by XRPD to determine crystallinity and form. The samples were then stored at 40° C. and 75% RH overnight and reanalyzed by XRPD to determine any changes in form or crystallinity. Results are shown in Table 39, below, and FIGS. 40A-40D.

For `COc1ccc(CN2C3CC2CN(c2ccc(-c4cc(OCC(C)(C)O)cn5ncc(C#N)c45)cn2)C3)cn1` [Form 1], the “form or crystallinity by XRPD post-GVS analysis” value [1] was “No change in form”, the “hygroscopicity by GVS” value [1] was “moderately hygroscopic” and the “weight increase by GVS” value ([1]; at 90% RH) was 2.6%.

In the case of `O=C(O)CCC(=O)O` [Succinic acid], the XRPD post-cycling ([2]; IPA/water (10%)) is reported as “Form 8”, the XRPD post-cycling ([2]; MeCN/water (20%)) is reported as “Form 8” and the XRPD post-stability ([2]; MeCN/water (20%), overnight 40° C. and 75% RH) is reported as “Form 8”.

For `COc1ccc(CN2C3CC2CN(c2ccc(-c4cc(OCC(C)(C)O)cn5ncc(C#N)c45)cn2)C3)cn1` [compound of Formula (I), 6-(2-hydroxy-2-methylpropoxy)-4-(6-(6-((6-methoxypyridin-3-yl)methyl)-3,6-diazabicyclo[3.1.1]heptan-3-yl)pyridin-3-yl)pyrazolo[1,5-a]pyridine-3-carbonitrile], the “change in form post-DVS” value ([3]; XRPD after DVS) was “No change in Form”, the “weight increase by DVS” value ([3]; at 90% RH, material prepared as in Example 1, identified as Form 1) was “around 3.6%” and the “hygroscopicity by DVS” value ([3]; material prepared as in Example 1, identified as Form 1) was “moderately hygroscopic”. It also gave a solubility ([4]; aqueous with cosolvent or surfactant or cyclodextrin, solvent Acetone:Water (50%)) of less than 5000 µg/mL, a solubility ([4]; organic solvent or mixture, solvent 1,4-Dioxane, (P) = partial solubility at 100 volumes) of less than 5000 µg/mL and a solubility ([4]; organic solvent or mixture, solvent 1-Butanol) of less than 5000 µg/mL. It also gave a solubility ([4]; organic solvent or mixture, solvent 1-Propanol) of less than 5000 µg/mL, a solubility ([4]; organic solvent or mixture, solvent 2-Ethoxyethanol, (P) = partial solubility at 100 volumes) of less than 5000 µg/mL and a solubility ([4]; organic solvent or mixture, solvent 2-Methyl THF, (P) = partial solubility at 100 volumes) of less than 5000 µg/mL. It also gave a solubility ([4]; organic solvent or mixture, solvent Acetone) of less than 5000 µg/mL, a solubility ([4]; organic solvent or mixture, solvent Anisole, (P) = partial solubility at 100 volumes) of less than 5000 µg/mL and a solubility ([4]; organic solvent or mixture, solvent CHCl3, (P) = partial solubility at 100 volumes) of less than 5000 µg/mL. The solubility ([4]; organic solvent or mixture, solvent Cyclohexane) was less than 5000 µg/mL, the solubility ([4]; organic solvent or mixture, solvent Cyclohexanone, (P) = partial solubility at 100 volumes) was less than 5000 µg/mL and the solubility ([4]; organic solvent or mixture, solvent DCM, (P) = partial solubility at 100 volumes) was less than 5000 µg/mL. For the same compound, the solubility ([4]; organic solvent or mixture, solvent EtOAc) was less than 5000 µg/mL, the solubility ([4]; organic solvent or mixture, solvent Ethanol) was less than 5000 µg/mL and the solubility ([4]; organic solvent or mixture, solvent IPA) was less than 5000 µg/mL. It also gave a solubility ([4]; organic solvent or mixture, solvent MEK) of less than 5000 µg/mL, a solubility ([4]; organic solvent or mixture, solvent MIBK) of less than 5000 µg/mL and a solubility ([4]; organic solvent or mixture, solvent MeOAc) of less than 5000 µg/mL. The solubility ([4]; organic solvent or mixture, solvent Nitromethane, (P) = partial solubility at 100 volumes) was less than 5000 µg/mL, the solubility ([4]; organic solvent or mixture, solvent THF, (P) = partial solubility at 100 volumes) was less than 5000 µg/mL and the solubility ([4]; solvent Water) was less than 5000 µg/mL. For the same compound, the “solubility in solvent solubility screen” value ([4]; DMSO, NMP, and THF/water (1%)) was “moderate solubility”, the “solubility in solvent solubility screen” value ([4]; majority of solvent systems investigated) was “low solubility” and the “Post-temperature cycling (XRPD form)” value ([5]; slurry in 1,4-Dioxane, 40° C./RT cycles 72 hours) was “Weak diffraction”. For the same compound, the “Post-temperature cycling (XRPD form)” value ([5]; slurry in 1-Butanol, 40° C./RT cycles 72 hours) was “Weak diffraction”, the “Post-temperature cycling (XRPD form)” value ([5]; slurry in 1-Propanol, 40° C./RT cycles 72 hours) was “Form 8” and the “Post-temperature cycling (XRPD form)” value ([5]; slurry in 2-Ethoxyethanol, 40° C./RT cycles 72 hours) was “Weak diffraction”. For the same compound, the “Post-temperature cycling (XRPD form)” value ([5]; slurry in 2-Methyl THF, 40° C./RT cycles 72 hours) was “Weak diffraction”, the “Post-temperature cycling (XRPD form)” value ([5]; slurry in Acetone, 40° C./RT cycles 72 hours) was “Weak diffraction” and the “Post-temperature cycling (XRPD form)” value ([5]; slurry in Acetone:Water (50%), 40° C./RT cycles 72 hours) was “Form 1”. For the same compound, the “Post-temperature cycling (XRPD form)” value ([5]; slurry in Anisole, 40° C./RT cycles 72 hours) was “Form 1”, the “Post-temperature cycling (XRPD form)” value ([5]; slurry in CHCl3, 40° C./RT cycles 72 hours) was “Amorphous” and the “Post-temperature cycling (XRPD form)” value ([5]; slurry in Cyclohexane, 40° C./RT cycles 72 hours) was “Form 1”. For the same compound, the “Post-temperature cycling (XRPD form)” value ([5]; slurry in Cyclohexanone, 40° C./RT cycles 72 hours) was “Weak diffraction”, the “Post-temperature cycling (XRPD form)” value ([5]; slurry in DCM, 40° C./RT cycles 72 hours) was “Amorphous” and the “Post-temperature cycling (XRPD form)” value ([5]; slurry in DMSO, 40° C./RT cycles 72 hours) was “Form 1”. For the same compound, the “Post-temperature cycling (XRPD form)” value ([5]; slurry in EtOAc, 40° C./RT cycles 72 hours) was “Form 1”, the “Post-temperature cycling (XRPD form)” value ([5]; slurry in Ethanol, 40° C./RT cycles 72 hours) was “Weak diffraction” and the “Post-temperature cycling (XRPD form)” value ([5]; slurry in IPA, 40° C./RT cycles 72 hours) was “Form 8”. The “Post-temperature cycling (XRPD form)” value ([5]; slurry in MEK, 40° C./RT cycles 72 hours) was “Weak diffraction”, the “Post-temperature cycling (XRPD form)” value ([5]; slurry in MIBK, 40° C./RT cycles 72 hours) was “Form 1” and the “Post-temperature cycling (XRPD form)” value ([5]; slurry in MeCN:Water (20%), 40° C./RT cycles 72 hours) was “Weak diffraction”. For the same compound, the “Post-temperature cycling (XRPD form)” value ([5]; slurry in MeOAc, 40° C./RT cycles 72 hours) was “Weak diffraction”, the “Post-temperature cycling (XRPD form)” value ([5]; slurry in Nitromethane, 40° C./RT cycles 72 hours) was “Weak diffraction” and the “Post-temperature cycling (XRPD form)” value ([5]; slurry in THF, 40° C./RT cycles 72 hours) was “Weak diffraction”. For the same compound, the “Post-temperature cycling (XRPD form)” value ([5]; slurry in THF:Water (1%), 40° C./RT cycles 72 hours) was “Weak diffraction”, the “Post-temperature cycling (XRPD form)” value ([5]; slurry in Water, 40° C./RT cycles 72 hours) was “Form 1” and the “Post-stability tests (XRPD form)” value ([5]; solid from 1,4-Dioxane) was “Form 1”. The “Post-stability tests (XRPD form)” value ([5]; solid from 1-Butanol) was “Form 1”, the “Post-stability tests (XRPD form)” value ([5]; solid from 1-Propanol) was “Form 1” and the “Post-stability tests (XRPD form)” value ([5]; solid from 2-Ethoxyethanol) was “Form 1”. The “Post-stability tests (XRPD form)” value ([5]; solid from 2-Methyl THF) was “Form 1”, the “Post-stability tests (XRPD form)” value ([5]; solid from Acetone:Water (50%)) was “Form 1” and the “Post-stability tests (XRPD form)” value ([5]; solid from Acetone) was “Form 1”. For the same compound, the “Post-stability tests (XRPD form)” value ([5]; solid from Anisole) was “Form 1”, the “Post-stability tests (XRPD form)” value ([5]; solid from CHCl3) was “Form 1” and the “Post-stability tests (XRPD form)” value ([5]; solid from Cyclohexane) was “Form 1”. The “Post-stability tests (XRPD form)” value ([5]; solid from Cyclohexanone) was “Form 1”, the “Post-stability tests (XRPD form)” value ([5]; solid from DCM) was “Form 1” and the “Post-stability tests (XRPD form)” value ([5]; solid from DMSO) was “Form 1”. For the same compound, the “Post-stability tests (XRPD form)” value ([5]; solid from EtOAc) was “Form 1”, the “Post-stability tests (XRPD form)” value ([5]; solid from Ethanol) was “Form 1” and the “Post-stability tests (XRPD form)” value ([5]; solid from IPA) was “Form 1”. The “Post-stability tests (XRPD form)” value ([5]; solid from MEK) was “Form 1”, the “Post-stability tests (XRPD form)” value ([5]; solid from MIBK) was “Form 1” and the “Post-stability tests (XRPD form)” value ([5]; solid from MeCN:Water (20%)) was “Form 1”. The “Post-stability tests (XRPD form)” value ([5]; solid from MeOAc) was “Form 1”, the “Post-stability tests (XRPD form)” value ([5]; solid from Nitromethane) was “Form 1” and the “Post-stability tests (XRPD form)” value ([5]; solid from THF) was “Form 1”. The “Post-stability tests (XRPD form)” value ([5]; solid from Water) was “Form 1”.
